According to PubChem BioAssay (NCI):
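Five concentrations, 48 hours, 96-well plates. GI50 is the concentration that inhibits growth by half. TGI: concentration producing complete growth inhibition.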

Columns and labels:
Assay in all cases: NCI anticancer screen, dose series, 48 h
[1] = test system: DU-145 prostate
[2] = test system: NCI-H23 lung
[3] = test system: HL-60(TB) leukemia
[4] = test system: M14 melanoma
[5] = test system: A498 renal
[6] = test system: OVCAR-8 ovarian
[7] = test system: A549 NSCLC
[8] = test system: NCI-H522 lung
[9] = test system: EKVX NSCLC
[10] = test system: SF-268 CNS
[11] = test system: NCI/ADR-RES ovarian
[12] = test system: SNB-19 CNS
[13] = test system: NCI-H460 lung
[14] = test system: KM12 colon
[15] = test system: PC-3 prostate
[16] = test system: SK-MEL-28 melanoma
[17] = test system: RXF 393 renal
[18] = test system: NCI-H226 lung
[19] = test system: BT-549 breast
[20] = test system: HCC-2998 colon
[21] = test system: UO-31 renal
[22] = test system: SW-620 colon
[23] = test system: UACC-62 melanoma
[24] = test system: OVCAR-4 ovarian
[25] = test system: UACC-257 melanoma
[26] = test system: MCF7 breast
[27] = test system: SN12C renal
[28] = test system: SK-MEL-2 melanoma

Compound `CNC(=O)c1cc(-n2ccc3cc(NC(=O)Nc4ccc(N5CCN(C)CC5)c(C(F)(F)F)c4)ccc32)ccn1` has a GI50 [1] of 3.97 µM, a TGI [1] of 7.52 µM and a GI50 [2] of 3.87 µM. The TGI [2] was 8.32 µM, the GI50 [3] was 1440 nM and the TGI [3] was 6.33 µM. The GI50 [4] was 2950 nM, the TGI [4] was 6.09 µM and the GI50 [5] was 3.61 µM. For the same compound, the TGI [5] was 7.07 µM, the GI50 [6] was 4.27 µM and the TGI [6] was 8.27 µM. For the same compound, the GI50 [7] was 3.58 µM, the TGI [7] was 7.36 µM and the GI50 [8] was > 25 µM. For the same compound, the TGI [8] was > 25 µM, the GI50 [9] was 3.46 µM and the TGI [9] was 6.88 µM. For the same compound, the GI50 [10] was 3.3 µM, the TGI [10] was 7.43 µM and the GI50 [11] was 5.3 µM. The TGI [11] was 13.7 µM, the GI50 [12] was 3.49 µM and the TGI [12] was 7.23 µM. The GI50 [13] was 4.1 µM, the TGI [13] was 8.4 µM and the GI50 [14] was 866 nM. The TGI [14] was 3.88 µM, the GI50 [15] was 3.6 µM and the TGI [15] was 9.56 µM. It also gave a GI50 [16] of 2960 nM, a TGI [16] of 6.38 µM and a GI50 [17] of 633 nM. For the same compound, the TGI [17] was 1750 nM, the GI50 [18] was > 25 µM and the TGI [18] was > 25 µM. The GI50 [19] was 2700 nM, the TGI [19] was 5.75 µM and the GI50 [20] was 3.53 µM. For the same compound, the TGI [20] was 7.05 µM, the GI50 [21] was 4.27 µM and the TGI [21] was 8.56 µM. The GI50 [22] was 3.41 µM, the TGI [22] was 7.11 µM and the GI50 [23] was 4.15 µM. For the same compound, the TGI [23] was 8.22 µM, the GI50 [24] was 3.65 µM and the TGI [24] was 8.62 µM. It also gave a GI50 [25] of 3.97 µM, a TGI [25] of 7.6 µM and a GI50 [26] of 2300 nM. The TGI [26] was 6.34 µM, the GI50 [27] was 3.53 µM and the TGI [27] was 7.56 µM. The GI50 [28] was 4.33 µM and the TGI [28] was 7.95 µM.
